Measurements reported in patent US8828678B2, “Self-immolative probes for enzyme activity detection” (Enzo Life Sciences, Inc., priority 2010, dated 2014).

Experiments:
hypoxic HeLa cells = assay: Detection of hypoxia with hypoxia markers using fluorescence microscopy; format: cell-based, human; settings: 5 μM, 3.5 h, chemical induction of hypoxia (CoCl2, DFO, DMOG) or anoxic treatment, FITC filter
Procedure: The human cervical adenocarcinoma epithelial cell line HeLa, U-2 OS human bone osteosarcoma cell line and hamster ovary CHO K1 cell line were obtained from ATTC. HeLa cells were routinely cultured in Eagle's Minimum Essential Medium with low glucose (ATCC), supplemented with 10% fetal bovine serum (ATCC) and 100 U/ml penicillin, 100 μg/ml streptomycin (Sigma-Aldrich, St. Louis, Mo.). U-2 OS cells were routinely cultured in McCoy's 5a Modified Medium (ATCC), supplemented with 10% fetal bovine serum heat (ATCC) and 100 U/ml penicillin+100 μg/ml streptomycin (Sigma-Aldrich). […]
The day before the experiment, the cells were seeded on 4-well microscope slides (Cel-Line™ Brand, Portsmouth, N.H.) at a density 1×10^4 cells/well (2×10^4 cells/cm^2). […] Post-treatment, the slides were washed twice with PBS, coverslipped and visualized using an Olympus BX-51 fluorescence microscope (FITC filter set, 490ex/525em).
In parallel, the hypoxia cellular state was detected using the hypoxia detecting reagent pimonidazole (Varia et al., 1998; Young, 1977). […] Slides were stained with a 1:100 dilution of FITC-MAb1 against pimonidazole (HP-1 kit from Hypoxyprobe) for 45 min at 4° C., washed twice with PBS, coverslipped and visualized using an Olympus BX-51 fluorescence microscope equipped with an FITC filter set (490ex/525em). […]

HeLa cells = assay: Combined detection of hypoxia and redox status in live cells by fluorescent microscopy; format: cell-based, human; settings: 5 μM; all four hypoxic samples (anoxia, CoCl2, DFO, DMOG)
Procedure: HeLa and U-2 OS cells were cultured as described in Example 7. Stock solutions of CD-1 and CD-5 and various hypoxia inducers were prepared and stored as described in Examples 7 and 8. Additionally, 5 mM stock solutions (5000×) of 2′,7′-dichloro-fluorescein diacetate (DCFDA, an indicator of global ROS generation) and dihydroethidium (DHE, specific indicator of superoxide generation) were made in anhydrous DMF. DMSO was avoided, since this solvent is a hydroxyl radical scavenger and its presence may affect ROS/RNS production in cellular systems. The following stocks of ROS inducers were prepared in DMF: 10 mM pyocyanin (general ROS generating compound, 100×), 20 mM antimycin A (general ROS inducer, 400×), 50 mM pyrogallol (a superoxide radical generator, 1000×), 1 mM t-butyl hydroperoxide (TBHP, peroxide radical inducer, 10,000×). ROS probes and inducers were aliquoted and stored at −80° C.
The day before the experiment, the cells were seeded on 4-well microscope slides (Cel-Line™ Brand, Portsmouth, N.H.) at a density 1×10^4 cells/well (2×10^4 cells/cm^2). On the day of the experiment, the cells were preloaded with both hypoxia probe (5 μM final concentration in cell culture medium) and ROS detecting reagent with suitable spectral characteristics. Two ROS-detecting probes, DCFDA and DHE, were used in a pilot experiment in conjunction with hypoxia self-immolative probes. The hydrolyzed product of DCFDA, DCFH, is considered to be a general indicator of ROS, reacting with H2O2 (in the presence of peroxidases), ONOO^−, lipid hydroperoxides, and hydroxyl radicals. The oxidized product can be detected by strong fluorescence emission at around 525 nm when excited at around 488 nm. Because H2O2 is a secondary product of O2.^−, DCFH fluorescence has been used to implicate O2.^− production. The direct reaction of DHE with O2.^− yields a very specific fluorescent product, requiring no conversion to H2O2. The product of the DHE reaction with O2.^− fluoresces strongly at around 600 nm when excited at 500-530 nm.
Tested pairs of the probes were as follows: CD-5 with DCFDA or DHE, and CD-1 with DHE. A hypoxic state was induced in the cells as described in Example 7. Control slides were singly-stained with hypoxia or ROS-detecting probes only. Additional slides were treated with different general and specific ROS inducers and stained with ROS-detecting probes to control ROS staining. Post-treatment, the slides were washed twice with PBS, coverslipped and visualized using an Olympus BX-51 fluorescence microscope and a DAPI filter set (350 ex/470em) for CD-5, an FITC filter set (490ex/525em) for CD-1 or for total ROS detection reagent, and an orange filter set (550ex/620em) for HE.

## O=C(Nc1ccc2c(c1)Oc1cc(NC(=O)N3CCOCC3)ccc1C21OC(=O)c2ccccc21)OCc1ccc([N+](=O)[O-])cc1 (centres unmarked) [CD-1]
Hypoxic HeLa cells
  fluorescence signal in hypoxic HeLa cells: bright fluorescence signal
HeLa cells
  hypoxia probe fluorescent signal in hypoxic HeLa cells, multiplexed with ROS dyes: bright fluorescent signal
